# Assay results reported in patent US4731109A, “Herbicidal 2-haloacetanilides” (Monsanto Company, priority 1982, dated 1988).
# Where two headings read alike, the source gives them in different places.
# Experiments:
# Type in all cases: in vivo
# cotton = test: Greenhouse pre-emergence GR15/GR85 selectivity test
# Excerpt: (§1) A good grade of top soil is placed in aluminum pans and compacted to a depth of three-eighths to one-half inch from the top of the pan. On the top of the soil is placed a number of seeds or vegetative propagules of various plant species. The soil required to level fill the pans after seeding or adding vegetative propagules is weighed into a pan. The soil and a known amount of the active ingredient applied in a solvent or as a wettable powder suspension are thoroughly mixed, and used to cover the prepared pans. After treatment, the pans are given an initial overhead irrigation of eater, equivalent to one-fourth inch (0.64 cm) rainfall, then watered by subirrigation as need to give adequate moisture for germination and growth. As an alternative procedure, the overhead irrigation may be omitted. Observations are made about 2-3 weeks after seeding and treatment.
# (§2) In the discussion and tables of data below, reference is made to herbicide application rates symbolized as "GR15 " and "GR85 "; these rates are given in kilograms per hectare (kg/ha) which are convertible into pounds per acre (lbs/A) by dividing the kg/ha rate by 1.12.
# (§3) A further guide to the effectiveness of a chemical as a selective herbicide is the "selectivity factor" ("SF") for a herbicide in given crops and weeds. The selectivity factor is a measure of the relative degree of crop safety and weed injury and is expressed in terms of the GR15 /GR85 ratio, i.e., the GR15 rate for the crop divided by the GR85 rate for the weed, both rates in kg/ha (lb/A). In the tables below, selectivity factors are shown in parenthesis following the GR85 rate for each weed; the symbol "NS" indicates "non-selective". Marginal or undetermined selectivity is indicated by a dash (--).
# (§4) Additionally, pre-emergence herbicidal data from other tests have established that compounds according to this invention also selectively suppress quackgrass, yellow nutsedge and/or other weeds in one or more of the crops cotton, peanuts, bush beans and/or rape. For example, in Table VI are presented data showing the herbicidal selectivity of the compounds of Examples 1 and 2 against quackgrass in rape and snap beans. Unless otherwise noted; greenhouse tests in Table VI and in other tables below involved herbicide treatments by soil incorporation and an initial overhead irrigation followed by subirrigation as described above.
# In one multi-crop test in the greenhouse, the compounds of Examples 1, 9, and 10 were tested against yellow nutsedge in cotton, soybeans, corn and rice; each compound was non-selective with respect to yellow nutsedge in rice. However, markedly high selectivities for yellow nutsedge in cotton, soybeans and corn were shown for each of the compounds in the test; the respective GR15 and GR85 rates for these compounds are shown in Table XII selectivity factors are shown in parenthesis after each crop.
# purple nutsedge = test: as above; conditions: Table XV; for selectivity factor (GR15/GR85): in rape
# Excerpt: as §1, §2, §3, §4
# In other greenhouse tests, compounds according to this invention have shown selective control of a variety of annual and perennial weeds in various crops. As further illustrative, the compound of Example 1 selectively controlled purple nutsedge in both corn nd soybeans, the respective crop/weed GR15 /GR85 ratios (expressed in kg/ha) being 0.67/0.25 (S.F.=2.7) in corn and 1.1/0.25 (S.F.=4.5) in soybeans. The compound of Example 8 has shown selective control of yellow nutsedge and quackgrass in corn and soybeans. The respective crop/yellownutsedge GR15 /GR85 ratios being >2.2/0.95 (S.F.=2.5) in corn; 2.2/0.5 (SF=4.5) in soybeans and the respective GR15 /GR85 ratios for both corn and soybeans in quackgrass being >2.2/0.5 (S.F.=4.5). In a test against yellow nutsedge in cotton, the GR15 /GR85 ratio (average of two replicates) was 2.0/0.95 (S.F.=2).
# In another greenhouse test, the compounds of Examples 3-5, 9 and 10 were tested for their herbicidal efficacy against a variety of resistant annual and perennial weeds in rape.
# soybeans = test: Herbicidal effect in a variety of soil types; conditions: Table XVII C
# prickly sida = test: Greenhouse pre-emergence GR15/GR85 selectivity test; conditions: Table XV
# Procedure, shortened: (§5)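 Pre-emergence soil-incorporation test: seeded pans were covered with topsoil mixed with active ingredient (in solvent or as wettable powder), overhead-irrigated (0.64 cm) or not, then subirrigated. Plants were scored about 2-3 weeks after treatment. GR15/GR85 rates are in kg/ha, and selectivity factor is crop GR15 divided by weed GR85.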
# redroot pigweed = test: as above; conditions: Table XV; for selectivity factor (GR15/GR85): in rape
# Procedure, shortened: as §5
# common ragweed = test: as above; conditions: Table XV
# Procedure, shortened: as §5
# common purslane = test: as above; conditions: Table XV
# Procedure, shortened: as §5
# Barnyardgrass = test: Resistance to leaching and resulting herbicidal efficacy; conditions: Echinochloa crus-galli, read-out: Percent Inhibition; for inhibition at 140 g/ha: 0.14 Kg/Ha; for inhibition at 560 g/ha: 0.56 Kg/Ha; for inhibition at 2200 g/ha: 2.2 Kg/Ha
# Procedure: Laboratory tests were conducted to determine the resistance of herbicides according to this invention to leaching into the soil and resulting herbicidal efficacy. […] The pots containing the treated soil were subjected to leaching by placing on a turntable which rotated under two nozzle tips of a water container calibrated to deliver one inch (2.5 cm) of water per hour simulating rainfall. Leaching rates were adjusted by varying the amount of time on the turntable. Water was delivered to the soil in the pots and allowed to percolate through the filter paper and drainage holes. The pots were then allowed to sit for three days at ambient room temperature. The treated soil in the pots was then removed, crumbled and placed as a surface layer on top of other pots containing the above soils seeded with barnyardgrass seeds. The pots were then placed on greenhouse benches, sub-irrigated and allowed to grow for 2-3 weeks. Visual ratings of percent growth inhibition compared to control (untreated) pots and fresh weights for barnyardgrass were recorded; the data from the control represents six replications and that for the test compounds three replications; test data are shown in Table XVIII.
# [1] = Drummer silt clay, rain 1.27 cm
# [2] = Drummer silt clay, rain 5.08 cm
# [3] = Drummer silt clay, rain 10.16 cm
compound,measurement,setting,value
"CCOCN(C(=O)CCl)c1c(CC)cccc1C(F)(F)F [Example 9, N--(ethoxymethyl)-2'-trifluoromethyl-6'-ethyl-2-chloroacetanilide]",GR15,cotton; Table XII,2.5 Kg/Ha
same,GR15,cotton; cotton/yellow nutsedge,0.7 kg/ha
same,GR85 Rate,purple nutsedge,0.19 Kg/Ha
same,selectivity factor (GR15/GR85),purple nutsedge,5.2
same,GR15,soybeans; Drummer silty clay,> 2.2 Kg/Ha
same,GR15,soybeans; Florida muck,> 2.2 Kg/Ha
same,GR15,soybeans; Ray silt loam,> 2.2 Kg/Ha
same,GR15,soybeans; Sarpy silty clay,> 2.2 Kg/Ha
same,GR15,soybeans; Wabash silty clay,3.0 Kg/Ha
same,GR85 Rate,prickly sida,> 1.12 Kg/Ha
same,selectivity factor (GR15/GR85),prickly sida; in rape,NS (non-selective)
same,GR85 Rate,redroot pigweed,0.70 Kg/Ha
same,selectivity factor (GR15/GR85),redroot pigweed,1.4
same,GR85 Rate,common ragweed,> 1.12 Kg/Ha
same,selectivity factor (GR15/GR85),common ragweed; in rape,NS (non-selective)
same,GR85 Rate,common purslane,0.78 Kg/Ha
same,selectivity factor (GR15/GR85),common purslane; in rape,1.3
"CCCOCN(C(=O)CCl)c1c(CC)cccc1C(F)(F)F [Example 10, N--(n-propoxymethyl)-2'-trifluoromethyl-6'-ethyl-2-chloroacetanilide]",GR15,cotton; Table XII,2.8 Kg/Ha
same,GR85 Rate,purple nutsedge,0.18 Kg/Ha
same,selectivity factor (GR15/GR85),purple nutsedge,> 6.2
same,GR85 Rate,prickly sida,> 1.12 Kg/Ha
same,GR85 Rate,redroot pigweed,0.70 Kg/Ha
same,selectivity factor (GR15/GR85),redroot pigweed,> 1.6
same,GR85 Rate,common ragweed,> 1.12 Kg/Ha
same,GR85 Rate,common purslane,> 1.12 Kg/Ha
same,inhibition at 140 g/ha,"Barnyardgrass; Drummer silt clay, rain 0 cm",90%
same,inhibition at 140 g/ha,Barnyardgrass; [1],85%
same,inhibition at 140 g/ha,Barnyardgrass; [2],80%
same,inhibition at 140 g/ha,Barnyardgrass; [3],70%
same,inhibition at 560 g/ha,"Barnyardgrass; Drummer silt clay, rain 0 cm",99%
same,inhibition at 560 g/ha,Barnyardgrass; [1],98%
same,inhibition at 560 g/ha,Barnyardgrass; [2],98%
same,inhibition at 560 g/ha,Barnyardgrass; [3],98%
same,inhibition at 2200 g/ha,"Barnyardgrass; Drummer silt clay, rain 0 cm",100%
same,inhibition at 2200 g/ha,Barnyardgrass; [1],100%
same,inhibition at 2200 g/ha,Barnyardgrass; [2],99%
same,inhibition at 2200 g/ha,Barnyardgrass; [3],98%
same,inhibition at 140 g/ha,"Barnyardgrass; Ray silt loam, rain 0 cm",100%
same,inhibition at 140 g/ha,"Barnyardgrass; Ray silt loam, rain 1.27 cm",100%
same,inhibition at 140 g/ha,"Barnyardgrass; Ray silt loam, rain 5.08 cm",98%
same,inhibition at 560 g/ha,"Barnyardgrass; Ray silt loam, rain 0 cm",100%
same,inhibition at 560 g/ha,"Barnyardgrass; Ray silt loam, rain 1.27 cm",100%
same,inhibition at 560 g/ha,"Barnyardgrass; Ray silt loam, rain 5.08 cm",100%
same,inhibition at 560 g/ha,"Barnyardgrass; Ray silt loam, rain 10.16 cm",90%
same,inhibition at 2200 g/ha,"Barnyardgrass; Ray silt loam, rain 1.27 cm",100%
same,inhibition at 2200 g/ha,"Barnyardgrass; Ray silt loam, rain 5.08 cm",100%
same,inhibition at 2200 g/ha,"Barnyardgrass; Ray silt loam, rain 10.16 cm",98%
same,inhibition at 140 g/ha,"Barnyardgrass; Ray silt loam, rain 10.16 cm",65%
